Data reported in patent US10626077B2, “Salvianolic acid compound T, preparation method therefor, and use thereof” (TASLY PHARMACEUTICAL GROUP CO., LTD., priority 2013, dated 2020).

Tested on: mice pulmonary fibrosis induced by bleomycin
Assay: Anti-pulmonary fibrosis experiment in mice induced by bleomycin
Type: in vivo, Kunming mice
Conditions: 3 weeks
Procedure: Dividing the 40 mice into 4 groups: □ normal control group, given nasal dripping of normal saline, drenched with normal saline; □ model control group:given nasal dripping of bleomycin, drenched with normal saline; □(S)-salvianolic acid T group (16 mg/kg): given nasal dripping of bleomycin, drenched with (S)-salvianolic acid T solution; □(R)-salvianolic acid T group (16 mg/kg): given nasal dripping of bleomycin, drenched with (R)-salvianolic acid T solution; 10 mice in each group.
On the first day of the experiment, the mice were anesthetized with chloral hydrate, each mouse was given disposable nasal dripping of 50 μg bleomycin to establish the pulmonary fibrosis model. On the second day of the experiment, two treatment groups were drenched with (S)/(R)-salvianolic acid T, the model group and the normal group were drenched with equal volume of normal saline, once each day, 3 consecutive weeks. On the 21th day of the experiment, serum was separated from the blood collected from the orbital vein to detect TGF-β1, the mice were killed to take lungs, ground with double distilled water (the ratio of lungs and double distilled water was 1:5 (w/v)) into tissue homogenate, centrifuged to detect the MDA, superoxide dismutase (SOD), catalase (CAT), peroxidase (POD) in the tissues.

[1] = 16 mg/kg, lung tissue homogenate

Structure (SMILES): O=C(/C=C/c1ccc(O)c(O)c1/C(=C\c1ccc(O)c(O)c1)C(=O)O)O[C@H](Cc1ccc(O)c(O)c1)C(=O)O [(R)-salvianolic acid T]
- Serum TGF-β1 (16 mg/kg drenched once each day, day 21): 254 ± 29 ng/L
- CAT [1]: 23.1 ± 2.9 U/g
- MDA [1]: 311 ± 29 µg/g
- POD [1]: 16.4 ± 1.9 U/g
- SOD [1]: 52.2 ± 5.1 U/g
- Tissue TGF-β1 [1]: 562 ± 69 pg/g
